In patent publication US12466821B2 (Novartis AG, priority 2018, dated 2025):
Like-named read-outs stand apart in the source and are kept apart here.

What was measured:
[1] = molecular target: human HSV DNA polymerase UL30 (Human herpesvirus 1 (strain 17) (HHV-1) (Human herpes simplex virus 1), UniProt P04293); test: HSV polymerase biochemical assay (molecular beacon-based)
Method in brief: (§1)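 Readout was beacon fluorescence (ex 480, em 535 nm), used to derive IC50. Each dNTP was at 1.25 uM, with 200 nM primer and 100 nM beacon, after a 30-min RT inhibitor preincubation. Enzyme was 625 pM for HSV UL30 (20 min RT reaction) or 100 pM for CMV UL54 (60 min RT), both sf9-expressed MBP fusions, in pH 7.5 Tris buffer with MgCl2.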

[2] = system: Luciferase-encoding HCMV, AD169 strain; test: CMV Luciferase assay (cellular herpesvirus replication); type: cell-based
Method in brief: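 Neonatal human dermal fibroblasts were pretreated 1 h with compound (final 0.0159–50 μM or 0.00318–10 μM, 0.5% DMSO), then infected at MOI 1 with AD169 carrying pp28-promoter luciferase. After 72 h at 37 °C, Renilla-Glo luminescence normalized to no-virus and virus-only controls; EC50 by 4-parameter logistic model.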

[3] = molecular target: human CMV DNA polymerase UL54 (Human cytomegalovirus (strain AD169) (HHV-5) (Human herpesvirus 5), UniProt P08546); test: CMV polymerase biochemical assay (molecular beacon-based)
Method in brief: as §1

[4] = Human betaherpesvirus 5, AD169, read-out: CMV-Luc Cellular EC50
[5] = read-out: CMV-Luc Cellular EC50

| Compound | IC50 [1] | EC50 [2, 4] | IC50 [3] | EC50 [2, 5] |
| --- | --- | --- | --- | --- |
| N#Cc1ccc(CNC(=O)c2ccc3n(c2=O)CCN(CC2(S(=O)(=O)N4CC(F)(F)C4)CC2)C3=O)cc1 [Example 84-1, N-(4-cyanobenzyl)-2-((1-((3,3-difluoroazetidin-1-yl)sulfonyl)cyclopropyl)methyl)-1,6-dioxo-2,3,4,6-tetrahydro-1H-pyrido[1,2-a]pyrazine-7-carboxamide] | 102 nM | 69.6 nM | 3.9 nM |  |
| N#Cc1ccc(CNC(=O)c2ccc3n(c2=O)CCN(CC2(S(=O)(=O)C4CC4(F)F)CC2)C3=O)cc1F (stereo not drawn) [Example 98-2] | 57.6 nM | 41 nM | 1.2 nM |  |
| CS(=O)(=O)CCN1CCn2c(c(Br)cc(C(=O)NCc3ccc(Cl)cc3)c2=O)C1=O [Example 117, 9-bromo-N-(4-chlorobenzyl)-2-(2-(methylsulfonyl)ethyl)-1,6-dioxo-1,3,4,6-tetrahydro-2H-pyrido[1,2-a]pyrazine-7-carboxamide] | 577 nM | 1440 nM | 285 nM |  |
| CS(=O)(=O)C1(CN2CCn3c(c(F)cc(C(=O)NCc4ccc(C#N)cc4)c3=O)C2=O)CC1 [Example 164] | 305 nM | 249 nM | 13 nM |  |
| CCS(=O)(=O)CCN1CCn2c(ccc(C(=O)NCc3ccc(Cl)cc3)c2=O)C1=O [Example 53] | 365 nM | 1460 nM | 149 nM |  |
| N#Cc1ccc(CNC(=O)c2ccc3n(c2=O)CCN(CC2(S(=O)(=O)C4(C(F)F)CC4)CC2)C3=O)cc1 [Example 99-1] | 49.4 nM | 43.9 nM | 1 nM |  |
| COCCN1CCn2c(ccc(C(=O)NCc3ccc(Cl)cc3)c2=O)C1=O [Example 55] | 11500 nM | 6710 nM | 708 nM |  |
| CN(C(=O)OC(C)(C)C)C1(CN2CCn3c(ccc(C(=O)NCc4ccc(Cl)cc4)c3=O)C2=O)CC1 [Example 206] | 250000 nM | 10000 nM | 1740 nM |  |
| CC(C)(c1nnn[nH]1)S(=O)(=O)C1(CN2CCn3c(ccc(C(=O)NCc4ccc(Cl)cc4)c3=O)C2=O)CC1 [Example 186, 2-((1-((2-(1H-tetrazol-5-yl)propan-2-yl)sulfonyl)cyclopropyl)methyl)-N-(4-chlorobenzyl)-1,6-dioxo-1,3,4,6-tetrahydro-2H-pyrido[1,2-a]pyrazine-7-carboxamide] | 20.5 nM | 6660 nM | 1.2 nM |  |
| O=C(NCc1ccc(Cl)cc1)c1ccc2n(c1=O)CCN(CC1(C(=O)N3CCCC3)CC1)C2=O [Example 210] | 428 nM | 494 nM | 25.7 nM |  |
| CS(=O)(=O)C1(CN2CCn3c(ccc(C(=O)NCc4ccc(Cl)cc4)c3=O)C2=O)CCC1 [Example 49] | 2520 nM |  | 41.8 nM | 2800 nM |
| CC(C)(c1ncno1)S(=O)(=O)C1(CN2CCn3c(ccc(C(=O)NCc4ccc(C#N)cc4)c3=O)C2=O)CC1 [Example 179] | 16.9 nM | 125 nM | 0.4 nM |  |
| C[S+]([O-])C1(CN2CCn3c(ccc(C(=O)NCc4ccc(Cl)cc4)c3=O)C2=O)CC1 (stereo not drawn) [Example 67-1, N-(4-chlorobenzyl)-2-((1-(methylsulfinyl)cyclopropyl)methyl)-1,6-dioxo-2,3,4,6-tetrahydro-1H-pyrido[1,2-a]pyrazine-7-carboxamide] | 1780 nM | 868 nM | 57.3 nM |  |
| N#Cc1ccc(CNC(=O)c2ccc3n(c2=O)CCN(CC2(S(=O)(=O)N4CCC4)CC2)C3=O)cc1 [Example 88-2] | 73.5 nM | 39.5 nM | 3.2 nM |  |
| COC(=O)N(C)CCN1CCn2c(ccc(C(=O)NCc3ccc(Cl)cc3)c2=O)C1=O [Example 61-1] | 10800 nM | 5000 nM | 740 nM |  |
| N#Cc1ccc(CNC(=O)c2ccc3n(c2=O)CCN(CC2(S(=O)(=O)C4CC4(F)F)CC2)C3=O)cc1 (stereo not drawn) [Example 98-1] | 57.5 nM | 65.2 nM | 1.5 nM |  |
| CS(=O)(=O)CCCN1CCn2c(c(C#N)cc(C(=O)NCc3ccc(Cl)cc3)c2=O)C1=O [Example 126] | 1970 nM | 50000 nM | 1200 nM |  |
| CN(CCN1CCn2c(ccc(C(=O)NCc3ccc(Cl)cc3)c2=O)C1=O)S(=O)(=O)C1CC1 [Example 60] | 888 nM | 1250 nM | 124 nM |  |
| N#Cc1ccc(CNC(=O)c2ccc3n(c2=O)CCN(CC2(S(=O)(=O)C4CNC4)CC2)C3=O)cc1 [Example 18] | 161 nM | 3000 nM | 4.2 nM |  |

| Compound | IC50 [1] | EC50 [2, 4] | IC50 [3] | EC50 [2, 5] |
| --- | --- | --- | --- | --- |
| O=C(NCc1ccc(Cl)cc1)c1ccc2n(c1=O)CCN(CC1(N3CCOCC3=O)CC1)C2=O [Example 203] | 12200 nM | 10000 nM | 410 nM |  |
| CC(C)(CN)S(=O)(=O)C1(CN2CCn3c(ccc(C(=O)NCc4ccc(Cl)cc4)c3=O)C2=O)CC1 [Example 181, 2-((1-((1-amino-2-methylpropan-2-yl)sulfonyl)cyclopropyl)methyl)-N-(4-chlorobenzyl)-1,6-dioxo-1,3,4,6-tetrahydro-2H-pyrido[1,2-a]pyrazine-7-carboxamide] | 37.4 nM | 5.1 nM | 1.1 nM |  |
| N#Cc1ccc(CNC(=O)c2ccc3n(c2=O)CCN(CC2(S(=O)(=O)C4(CF)CC4)CC2)C3=O)cc1F [Example 14] | 27.9 nM | 10 nM | 0.3 nM |  |
| CNS(=O)(=O)C1(CN2CCn3c(ccc(C(=O)NCc4ccc(Cl)cc4)c3=O)C2=O)CC1 [Example 74-2] | 52.1 nM | 14.5 nM | 1.6 nM |  |
| CS(=O)(=O)CCCN1CCn2c(ccc(C(=O)NCc3ccc(Cl)cc3)c2=O)C1=O [Example 52] | 791 nM | 2950 nM | 163 nM |  |
| Cc1cc(C(=O)NCc2ccc(C#N)cc2)c(=O)n2c1C(=O)N(CC1(S(C)(=O)=O)CC1)CC2 [Example 85, N-(4-cyanobenzyl)-9-methyl-2-((1-(methylsulfonyl)cyclopropyl)methyl)-1,6-dioxo-2,3,4,6-tetrahydro-111-pyrido[1,2-a]pyrazine-7-carboxamide] | 102 nM |  | 4.7 nM | 177 nM |
| CS(=O)(=O)C1(CN2CCn3c(ccc(C(=O)NCc4ccc(Cl)c(F)c4)c3=O)C2=O)CC1 [Example 41] | 123 nM | 42.9 nM | 2.8 nM |  |
| N#Cc1ccc(CNC(=O)c2ccc3n(c2=O)CCN(CC2(S(=O)(=O)C4CCCC4)CC2)C3=O)cc1F [Example 21] | 35.4 nM | 58 nM | 0.8 nM |  |
| CC(C)(CO)S(=O)(=O)C1(CN2CCn3c(ccc(C(=O)NCc4ccc(Cl)nc4)c3=O)C2=O)CC1 [Example 182] | 38.6 nM | 48.3 nM | 2.7 nM |  |
| N#Cc1ccc(CNC(=O)c2ccc3n(c2=O)CCN(CC2(S(=O)(=O)CC4(C#N)CC4)CC2)C3=O)cc1 [Example 111] | 59.5 nM | 433 nM | 3.6 nM |  |
| N#Cc1ccc(CNC(=O)c2ccc3n(c2=O)CCN(CC2(S(=O)(=O)C4CCCC4)CC2)C3=O)cc1 [Example 22] | 56.3 nM | 88.8 nM | 1.9 nM |  |
| CS(=O)(=O)N(CCN1CCn2c(ccc(C(=O)NCc3ccc(Cl)cc3)c2=O)C1=O)C1CC1 [Example 115, N-(4-chlorobenzyl)-2-(2-(N-cyclopropylmethylsulfonamido)ethyl)-1,6-dioxo-2,3,4,6-tetrahydro-1H-pyrido[1,2-a]pyrazine-7-carboxamide] | 13600 nM | 15000 nM | 747 nM |  |
| CS(=O)(=O)C1(CN2CCn3c(ccc(C(=O)NCc4ccc(Br)cc4)c3=O)C2=O)CC1 [Example 37] | 111 nM | 62.3 nM | 1.3 nM |  |
| CS(=O)(=O)CCCN1CCn2c(c(N3CCCC3)cc(C(=O)NCc3ccc(Cl)cc3)c2=O)C1=O [Example 158, N-(4-chlorobenzyl)-2-(3-(methylsulfonyl)propyl)-1,6-dioxo-9-(pyrrolidin-1-yl)-1,3,4,6-tetrahydro-2H-pyrido[1,2-a]pyrazine-7-carboxamide] | 4090 nM | 13300 nM | 370 nM |  |
| CS(=O)(=O)N1CC(CN2CCn3c(ccc(C(=O)NCc4ccc(Cl)cc4)c3=O)C2=O)C1 [Example 65] | 11500 nM | 15100 nM | 614 nM |  |
| N#Cc1ccc(CNC(=O)c2ccc3n(c2=O)CCN(CC2(S(=O)(=O)C4COC4)CC2)C3=O)cc1F [Example 29] | 63.5 nM | 86.4 nM | 1.8 nM |  |
| C[C@@H](CCO)S(=O)(=O)C1(CN2CCn3c(ccc(C(=O)NCc4ccc(C#N)cc4)c3=O)C2=O)CC1 (single isomer, unassigned) [Example 8, N-(4-cyanobenzyl)-2-((1-((4-hydroxybutan-2-yl)sulfonyl)cyclopropyl)methyl)-1,6-dioxo-2,3,4,6-tetrahydro-1H-pyrido[1,2-a]pyrazine-7-carboxamide] | 111 nM | 784 nM | 4.6 nM |  |
| O=C(NCc1ccc(Cl)cc1)c1ccc2n(c1=O)CCN(CC1(S(=O)(=O)N3CC(F)(F)C3)CC1)C2=O [Example 84-3] | 52.6 nM | 31 nM | 1.4 nM |  |
| O=C(NCc1ccc(Cl)cc1)c1ccc2n(c1=O)CCN(CC1(NS(=O)(=O)C3CC3)CC1)C2=O [Example 200] | 2560 nM | 6770 nM | 232 nM |  |
